Marks after values point to notes of the source that are not given here.
Columns and labels:
PARP = assay: Example 1 immunohistochemistry: PARP-immunoreactive cells; assay type: in vivo, Sprague-Dawley (SD) rats; conditions: for Numbers of neurons: PARP+: 29 days after neuron apoptosis
Procedure: The induction of neuron apoptosis was carried out by damaging the right hemisphere of the brain of animals. Specifically, animals were anesthetized with 2 or 3% isoflurane in the mixture of 70% N2O and 28.5% O2, and were maintained with 1 to 1.5% isoflurane in the mixture of 70% N2O and 28.5% O2. After that the temporalis muscle was bisected and reflected through an incision made midway between the eye and the eardrum canal. The proximal MCA was exposed through a subtemporal craniectomy by microdental drills without removing the zygomatic arch and without transecting the facial nerve. […] Mortality was less than 5%. For sham control, all procedures were performed in the same way, with the exception of the occlusion of the MCA.
After deparraffinized of cerebral histological paraffin sections, citrate buffer antigen (epitope) retrieval pretreatment were conducted as previously (Shi S R et al., J Histochem Cytochem. 41:1599-604(1993)). Briefly, pre-heat water bath with staining dish containing 10 mM citrate buffers (pH 6.0) until temperature reaches 95-100° C. Immerse slides in the staining dish and place the lid loosely on the staining dish. Incubate for 20 minutes and turn off the water bath. Place the staining dish at room temperature and allow the slides to cool for 20 minutes. After epitope retrivals, sections were immunostained as following steps:
Incubate sections with methanol and 0.3% H2O2 for 30 minutes for blocking endogenous peroxidase activity at room temperature and rinse in 0.01M phosphate buffered saline (PBS; pH 7.2) for 3 times;
Incubate sections with normal horse serum blocking solution (Vector Lab. Inc., Burlingame, USA. Dilution 1:100) for 1 hour to block non-specific binding of immunoglobulin at room temperature in humidity chamber, and rinse in 0.01M PBS for 3 times;
Incubate sections with primary antisera for overnight at 4° C. in humidity chamber and rinse in 0.01M PBS for 3 times;
Incubate sections with biotinylated universal secondary antibody (Vector Lab., Dilution 1:50) for 1 hour at room temperature in humidity chamber and rinse in 0.01M PBS for 3 times;
Incubate sections with ABC reagents (Vectastain Elite ABC Kit, Vector Lab., Dilution 1:50) for 1 hour at room temperature in humidity chamber and rinse in 0.01M PBS for 3 times;
Incubate sections in Peroxidae substrate kit (Vector Lab.) for 5 min at room temperature and rinse in 0.01M PBS for 3 times;
Counterstain with Mayer's hematoxylin solution and rinse in running tap water for 30 minutes;
Dehydrate through 95% ethanol for 2 minutes, 100% ethanol for 3 times and Clear in xylene for two times; and
Coverslip with permanent mounting medium and observed under light microscope (Nikkon, Japan).
Histomorphometry: The nerve cells occupied by over 10% of immunoreactivities, the density, of each antiserum, caspase-3 and PARP were regarded as immunoreactive. In the present study, the numbers of each caspase-3 and PARP-immunoreactive cells among mm^2 of ipsilateral peri-infarct/defect cerebral cortex were measured using a computer-assisted image analysis program, respectively.
(§1) All data were expressed as mean±standard deviation (S.D.) of ten rats. Multiple comparison tests for different dose groups were conducted. Variance homogeneity was examined using the Levene test (Levene A, Clin Otalary, 1981; 6:145-51). […] Statistical analyses were conducted using SPSS (Release 14K, SPSS Inc., USA; Ludbrook, Clin Exp Pharmacol Physiol, 1997; 24:294-6). In addition, the percent changes between neuron apoptosis control and mirodenafil treated rats were calculated to help the understanding of the efficacy of test material as follow equation 3. Percentage changes as compared with neuron apoptosis control (%)=[((Data of mirodenafil treated groups−Data of neuron apoptosis control)/Data of neuron apoptosis control)×100] [EQUATION 3]

[1] = tested on: neuron apoptosis-operated rats; assay: Example 1 hindlimb placing test; assay type: in vivo, Sprague-Dawley (SD) rats
Procedure: Sensorimotor function was evaluated by use of limb placing de Ryck M et al., Stroke. 20:1383-90(1989)) and body swing (Borlongan and Sanberg, J Neurosci. 15:5372-8(1995)) tests. These tests were performed one day before neuron apoptosis to obtain a baseline and then at 1, 3, 7, 14, 21 and 28 days after neuron apoptosis. Behavioral tests were done before drug administration on days when both were scheduled. The investigator performing the surgery and behavioral assessments was blinded to treatment assignment.
Limb placing test: Forelimb and hindlimb placement were assessed independently. For the forelimb placing test, the rats were held by their torso with their forepaws hanging free and moved slowly toward the edge of a tabletop, stopping short of touching the vibrissae (for vision-induced placing), touching the vibrissae (for vibrissae-induced placing), making light contact with the front of the forepaw to the edge of the tabletop (for tactile-induced placing), and pressing the forepaws to the edge of the table with increased pressure (for proprioceptive-induced placing). Hindlimb placing was conducted in the same manner as above but with tactile and proprioceptive stimulation applied to the front/top of each hindlimb. Each limb for placing in response to visual, vibrissae, tactile, and proprioceptive stimulation are scored in the following manner (A total of 12 points in forelimb placing test and 6 points in hindlimb placing test means maximal neurological deficit, and 0 points means normal performance):
Normal performance=0 points;
Performance with unilateral limb=1 point;
Performance with a delay (2 seconds) and/or incomplete=2 point;
as §1

Q: With `CCCOc1ccc(S(=O)(=O)N2CCN(CCO)CC2)cc1-c1nc2c(CCC)cn(CC)c2c(=O)[nH]1` [Mirodenafil, mirodenafil] as the compound, how does the “numbers of PARP-immunoreactive neurons, change as compared with neuron apoptosis control” value (PARP; 0.5 mg/kg) read?
A: −37.58%

Q: What about the “Numbers of neurons: PARP+” value (PARP; 0.5 mg/kg s.c. once a day) of the same compound?
A: 47.50 ± 9.44^ab cells/mm^2 of cerebral cortex

Q: What about the “numbers of PARP-immunoreactive neurons, change as compared with neuron apoptosis control” value (PARP; 1 mg/kg) of the same compound?
A: −76.74%

Q: What about the “Numbers of neurons: PARP+” value (PARP; 1 mg/kg s.c. once a day) of the same compound?
A: 17.70 ± 2.00^ab cells/mm^2 of cerebral cortex

Q: And the “numbers of PARP-immunoreactive neurons, change as compared with neuron apoptosis control” value (PARP; 2 mg/kg)?
A: −78.32%

Q: What about the “Numbers of neurons: PARP+” value (PARP; 2 mg/kg s.c. once a day) of the same compound?
A: 16.50 ± 3.81^ab cells/mm^2 of cerebral cortex

Q: What about the “Hindlimb placing test score” value ([1]; 0.5 mg/kg group, day 1 after operation (before drug administration)) of the same compound?
A: 6.00 ± 0.00^d

Q: And the “Hindlimb placing test score” value ([1]; 0.5 mg/kg group, day −1 (baseline))?
A: 0.50 ± 0.71

Q: What about the “Hindlimb placing test score” value ([1]; 0.5 mg/kg s.c. once a day, day 3 after operation) of the same compound?
A: 4.00 ± 0.82^a

Q: What about the “Hindlimb placing test score” value ([1]; 0.5 mg/kg s.c. once a day, day 7 after operation) of the same compound?
A: 3.20 ± 0.79^a

Q: And the “Hindlimb placing test score” value ([1]; 0.5 mg/kg s.c. once a day, day 14 after operation)?
A: 2.80 ± 0.63^d

Q: And the “Hindlimb placing test score” value ([1]; 0.5 mg/kg s.c. once a day, day 21 after operation)?
A: 2.60 ± 0.70^a

Q: And the “Hindlimb placing test score” value ([1]; 0.5 mg/kg s.c. once a day, day 28 after operation)?
A: 2.40 ± 0.97^a

Q: What about the “hindlimb placing test scores, change as compared with neuron apoptosis control” value (“hindlimb placing test scores, change” for short) ([1]; 0.5 mg/kg, 3 days after surgery) of the same compound?
A: −6.98%

Q: What about the “hindlimb placing test scores, change” value ([1]; 0.5 mg/kg, 7 days after surgery) of the same compound?
A: −8.57%

Q: And the “hindlimb placing test scores, change” value ([1]; 0.5 mg/kg, 14 days after surgery)?
A: −9.68%

Q: And the “hindlimb placing test scores, change” value ([1]; 0.5 mg/kg, 21 days after surgery)?
A: −13.33%

Q: What about the “hindlimb placing test scores, change” value ([1]; 0.5 mg/kg, 28 days after surgery) of the same compound?
A: −11.11%

Q: And the “Hindlimb placing test score” value ([1]; 1 mg/kg group, day 1 after operation (before drug administration))?
A: 6.00 ± 0.00^d

Q: What about the “Hindlimb placing test score” value ([1]; 1 mg/kg group, day −1 (baseline)) of the same compound?
A: 0.30 ± 0.48

Q: What about the “Hindlimb placing test score” value ([1]; 1 mg/kg s.c. once a day, day 3 after operation) of the same compound?
A: 3.50 ± 0.71^ac

Q: And the “Hindlimb placing test score” value ([1]; 1 mg/kg s.c. once a day, day 7 after operation)?
A: 2.50 ± 0.71^ab

Q: And the “Hindlimb placing test score” value ([1]; 1 mg/kg s.c. once a day, day 14 after operation)?
A: 2.10 ± 0.57^df

Q: And the “Hindlimb placing test score” value ([1]; 1 mg/kg s.c. once a day, day 21 after operation)?
A: 1.70 ± 0.48^ab

Q: What about the “Hindlimb placing test score” value ([1]; 1 mg/kg s.c. once a day, day 28 after operation) of the same compound?
A: 1.10 ± 0.74^ab

Q: And the “hindlimb placing test scores, change” value ([1]; 1 mg/kg, 3 days after surgery)?
A: −18.80%

Q: What about the “hindlimb placing test scores, change” value ([1]; 1 mg/kg, 7 days after surgery) of the same compound?
A: −28.57%

Q: And the “hindlimb placing test scores, change” value ([1]; 1 mg/kg, 14 days after surgery)?
A: −32.26%

Q: And the “hindlimb placing test scores, change” value ([1]; 1 mg/kg, 21 days after surgery)?
A: −43.33%

Q: And the “hindlimb placing test scores, change” value ([1]; 1 mg/kg, 28 days after surgery)?
A: −59.26%

Q: And the “Hindlimb placing test score” value ([1]; 2 mg/kg group, day 1 after operation (before drug administration))?
A: 6.00 ± 0.00^d

Q: What about the “Hindlimb placing test score” value ([1]; 2 mg/kg group, day −1 (baseline)) of the same compound?
A: 0.40 ± 0.52

Q: And the “Hindlimb placing test score” value ([1]; 2 mg/kg s.c. once a day, day 3 after operation)?
A: 3.30 ± 0.67^ab

Q: What about the “Hindlimb placing test score” value ([1]; 2 mg/kg s.c. once a day, day 7 after operation) of the same compound?
A: 2.30 ± 0.82^ab

Q: And the “Hindlimb placing test score” value ([1]; 2 mg/kg s.c. once a day, day 14 after operation)?
A: 1.80 ± 1.03^de

Q: What about the “Hindlimb placing test score” value ([1]; 2 mg/kg s.c. once a day, day 21 after operation) of the same compound?
A: 1.60 ± 0.84^ab

Q: And the “Hindlimb placing test score” value ([1]; 2 mg/kg s.c. once a day, day 28 after operation)?
A: 1.10 ± 0.57^ab

Q: What about the “hindlimb placing test scores, change” value ([1]; 2 mg/kg, 3 days after surgery) of the same compound?
A: −23.26%

Q: And the “hindlimb placing test scores, change” value ([1]; 2 mg/kg, 7 days after surgery)?
A: −34.29%

Q: And the “hindlimb placing test scores, change” value ([1]; 2 mg/kg, 14 days after surgery)?
A: −41.94%

Q: And the “hindlimb placing test scores, change” value ([1]; 2 mg/kg, 21 days after surgery)?
A: −46.67%

Q: And the “hindlimb placing test scores, change” value ([1]; 2 mg/kg, 28 days after surgery)?
A: −59.26%

From patent US10064865B2, “Composition comprising phosphodiesterase type 5 inhibitor for inhibiting apoptosis of nerve cells” (ARIBIO INC., priority 2012, dated 2018)
